This assay deals with human Cav2.2 (Homo sapiens, UniProt Q00975). Briefly: Assessment of calcium channel activity using FLIPR (Ca2+ influx in IMR32 cells). The format is cell-based. The following applies: 60 minute pre-incubation with compound, 2 μM nifedipine, depolarized with 80 mM KCl. The method in brief:
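IC50 came from sigmoidal non-linear regression of percent inhibition, relative to uninhibited activity, across compound concentrations. Calcium influx was measured by FLIPR in IMR32 cells plated at 1-1.2×10^5 cells/well and cultured 48 h at 37 °C.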
Chain of human Cav2.2 (Q00975 whole entry): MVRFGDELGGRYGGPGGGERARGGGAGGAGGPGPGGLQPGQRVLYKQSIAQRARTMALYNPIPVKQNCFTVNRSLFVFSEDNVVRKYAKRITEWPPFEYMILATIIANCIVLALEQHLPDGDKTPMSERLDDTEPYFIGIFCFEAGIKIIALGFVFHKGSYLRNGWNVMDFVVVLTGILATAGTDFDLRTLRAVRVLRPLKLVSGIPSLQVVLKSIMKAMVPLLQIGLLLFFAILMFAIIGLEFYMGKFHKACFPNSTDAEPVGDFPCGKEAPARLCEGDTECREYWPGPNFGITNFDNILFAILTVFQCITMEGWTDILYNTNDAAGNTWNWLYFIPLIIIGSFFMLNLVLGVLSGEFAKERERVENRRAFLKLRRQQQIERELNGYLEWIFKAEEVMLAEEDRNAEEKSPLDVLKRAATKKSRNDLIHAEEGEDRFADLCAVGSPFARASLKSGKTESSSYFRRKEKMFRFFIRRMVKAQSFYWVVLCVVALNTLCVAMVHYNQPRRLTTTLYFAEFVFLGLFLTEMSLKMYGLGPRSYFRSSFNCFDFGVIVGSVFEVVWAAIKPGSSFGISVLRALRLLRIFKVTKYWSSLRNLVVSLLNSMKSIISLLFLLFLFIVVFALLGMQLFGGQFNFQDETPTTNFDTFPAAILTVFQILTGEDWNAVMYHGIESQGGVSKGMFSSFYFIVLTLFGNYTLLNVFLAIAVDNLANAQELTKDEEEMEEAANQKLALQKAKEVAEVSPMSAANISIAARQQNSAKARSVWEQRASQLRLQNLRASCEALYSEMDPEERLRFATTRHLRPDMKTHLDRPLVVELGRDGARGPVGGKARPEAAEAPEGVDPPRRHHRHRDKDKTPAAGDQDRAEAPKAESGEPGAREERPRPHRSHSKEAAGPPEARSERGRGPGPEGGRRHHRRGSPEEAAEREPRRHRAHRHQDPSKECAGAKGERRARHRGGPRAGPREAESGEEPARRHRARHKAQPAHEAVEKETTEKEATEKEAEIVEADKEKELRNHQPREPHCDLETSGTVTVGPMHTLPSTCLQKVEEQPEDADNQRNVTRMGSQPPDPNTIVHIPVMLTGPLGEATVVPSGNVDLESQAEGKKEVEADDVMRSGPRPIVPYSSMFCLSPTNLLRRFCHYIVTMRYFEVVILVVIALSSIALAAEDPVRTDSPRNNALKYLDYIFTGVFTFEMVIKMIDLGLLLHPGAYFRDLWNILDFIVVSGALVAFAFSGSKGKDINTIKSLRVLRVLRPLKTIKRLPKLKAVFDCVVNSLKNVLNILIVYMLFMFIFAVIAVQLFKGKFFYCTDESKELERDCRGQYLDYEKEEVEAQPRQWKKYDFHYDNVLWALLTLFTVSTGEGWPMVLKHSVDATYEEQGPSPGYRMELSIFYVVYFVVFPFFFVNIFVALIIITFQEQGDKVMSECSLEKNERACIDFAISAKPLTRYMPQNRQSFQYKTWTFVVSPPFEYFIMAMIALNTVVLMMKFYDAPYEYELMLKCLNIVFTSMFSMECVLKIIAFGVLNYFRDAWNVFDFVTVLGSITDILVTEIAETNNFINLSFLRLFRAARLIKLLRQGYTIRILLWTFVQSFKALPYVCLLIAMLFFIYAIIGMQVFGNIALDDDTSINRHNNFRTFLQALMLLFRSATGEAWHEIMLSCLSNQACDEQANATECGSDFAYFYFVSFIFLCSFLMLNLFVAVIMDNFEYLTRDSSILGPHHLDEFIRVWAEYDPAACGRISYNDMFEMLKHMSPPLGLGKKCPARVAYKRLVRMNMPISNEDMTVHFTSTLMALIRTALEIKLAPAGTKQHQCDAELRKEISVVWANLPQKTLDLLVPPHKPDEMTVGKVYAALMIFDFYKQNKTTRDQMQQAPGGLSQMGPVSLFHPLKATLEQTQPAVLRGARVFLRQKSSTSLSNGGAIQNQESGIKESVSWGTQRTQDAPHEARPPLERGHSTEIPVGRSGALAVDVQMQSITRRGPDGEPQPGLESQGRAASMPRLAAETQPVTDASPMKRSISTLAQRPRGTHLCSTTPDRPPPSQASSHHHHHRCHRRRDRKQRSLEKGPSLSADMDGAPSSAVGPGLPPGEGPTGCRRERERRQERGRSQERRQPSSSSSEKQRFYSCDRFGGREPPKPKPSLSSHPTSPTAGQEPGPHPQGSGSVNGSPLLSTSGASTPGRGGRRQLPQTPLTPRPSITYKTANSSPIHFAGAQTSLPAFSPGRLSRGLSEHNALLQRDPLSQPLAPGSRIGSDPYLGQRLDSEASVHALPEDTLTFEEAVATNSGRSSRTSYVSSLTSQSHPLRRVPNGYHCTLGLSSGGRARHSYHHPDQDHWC
Chain of human Cav2.2 (P54289 25-946 partner limits assumed): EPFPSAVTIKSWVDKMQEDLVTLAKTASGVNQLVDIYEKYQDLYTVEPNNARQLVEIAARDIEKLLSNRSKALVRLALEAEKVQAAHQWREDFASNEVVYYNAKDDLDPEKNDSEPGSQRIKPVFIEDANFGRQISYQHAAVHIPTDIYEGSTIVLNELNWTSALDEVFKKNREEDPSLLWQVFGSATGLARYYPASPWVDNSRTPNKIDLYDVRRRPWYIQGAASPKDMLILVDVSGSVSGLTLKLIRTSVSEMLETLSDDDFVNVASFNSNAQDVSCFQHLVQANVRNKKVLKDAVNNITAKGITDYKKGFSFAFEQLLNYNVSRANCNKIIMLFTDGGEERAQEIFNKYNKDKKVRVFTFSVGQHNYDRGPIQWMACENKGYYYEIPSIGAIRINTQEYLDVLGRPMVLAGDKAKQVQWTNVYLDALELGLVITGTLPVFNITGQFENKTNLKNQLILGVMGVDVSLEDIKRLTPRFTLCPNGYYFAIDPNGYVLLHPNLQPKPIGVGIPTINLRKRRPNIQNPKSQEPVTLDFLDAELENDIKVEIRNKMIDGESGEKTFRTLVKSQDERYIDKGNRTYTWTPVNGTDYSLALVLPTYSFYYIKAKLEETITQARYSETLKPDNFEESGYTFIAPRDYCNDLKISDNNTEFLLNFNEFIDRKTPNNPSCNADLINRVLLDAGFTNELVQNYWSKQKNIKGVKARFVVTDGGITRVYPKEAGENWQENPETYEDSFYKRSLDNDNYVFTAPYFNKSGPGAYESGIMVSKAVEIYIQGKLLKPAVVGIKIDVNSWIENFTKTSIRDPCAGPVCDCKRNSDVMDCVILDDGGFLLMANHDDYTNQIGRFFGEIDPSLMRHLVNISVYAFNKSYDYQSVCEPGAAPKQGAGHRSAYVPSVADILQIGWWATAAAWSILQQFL
Chain of human Cav2.2 (P54289 947-1103 partner limits assumed): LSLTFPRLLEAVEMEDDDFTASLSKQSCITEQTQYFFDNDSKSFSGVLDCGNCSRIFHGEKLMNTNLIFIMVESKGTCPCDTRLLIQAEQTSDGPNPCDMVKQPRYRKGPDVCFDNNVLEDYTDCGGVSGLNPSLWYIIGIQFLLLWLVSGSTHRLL
Chain of human Cav2.2 (P54284 whole entry partner): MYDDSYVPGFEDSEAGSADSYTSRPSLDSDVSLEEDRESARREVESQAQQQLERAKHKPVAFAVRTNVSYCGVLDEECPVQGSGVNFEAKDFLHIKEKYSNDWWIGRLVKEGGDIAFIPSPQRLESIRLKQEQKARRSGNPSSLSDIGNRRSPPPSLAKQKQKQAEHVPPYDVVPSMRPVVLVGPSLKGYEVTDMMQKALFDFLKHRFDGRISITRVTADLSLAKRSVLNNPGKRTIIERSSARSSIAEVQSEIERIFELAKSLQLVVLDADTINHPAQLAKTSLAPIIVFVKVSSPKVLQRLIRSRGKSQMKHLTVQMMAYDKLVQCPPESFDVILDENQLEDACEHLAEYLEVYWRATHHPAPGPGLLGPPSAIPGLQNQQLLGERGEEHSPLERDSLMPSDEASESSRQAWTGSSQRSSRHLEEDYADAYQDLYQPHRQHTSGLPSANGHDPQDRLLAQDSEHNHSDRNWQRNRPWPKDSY
`CC(C)(C)OC(=O)N[C@H](C(=O)N[C@H]1CC[C@@H]2CN(S(=O)(=O)c3ccc(C(F)(F)F)cc3)C[C@@H]21)C(C)(C)C` [Example 341, tert-butyl(S)-3,3-dimethyl-1-oxo-1-((3aR,4S,6aS)-2-(4-(trifluoromethyl)phenylsulfonyl)octahydrocyclopenta[c]pyrrol-4-ylamino)butan-2-ylcarbamate]: the IC50 stood at 2.01 µM.
For `CC(C)(C)OC(=O)N[C@H](C(=O)N[C@@H]1CC[C@H]2CN(S(=O)(=O)c3ccc(C(F)(F)F)cc3)C[C@H]21)C(C)(C)C` [Example 342, tert-butyl(S)-3,3-dimethyl-1-oxo-1-((3aS,4R,6aR)-2-(4-(trifluoromethyl)phenylsulfonyl)octahydrocyclopenta[c]pyrrol-4-ylamino)butan-2-ylcarbamate] the value was 2.17 µM; for `CCCC[C@@H](C(=O)N[C@H]1CC[C@@H]2CN(S(=O)(=O)c3ccc(C(F)(F)F)cc3)C[C@@H]21)N(C)C(=O)OC(C)(C)C` [Example 343, tert-butyl methyl((S)-1-oxo-1-((3aR,4S,6aS)-2-(4-(trifluoromethyl)phenylsulfonyl)octahydrocyclopenta[c]pyrrol-4-ylamino)hexan-2-yl)carbamate], 1.01 µM.
As for `CC(C)(C)C[C@H](NC(=O)OC(C)(C)C)C(=O)N[C@H]1CC[C@@H]2CN(S(=O)(=O)c3ccc(C(F)(F)F)cc3)C[C@@H]21` [Example 344, tert-butyl(S)-4,4-dimethyl-1-oxo-1-((3aR,4S,6aS)-2-(4-(trifluoromethyl)phenylsulfonyl)octahydrocyclopenta[c]pyrrol-4-ylamino)pentan-2-ylcarbamate], the IC50 came to 0.99 µM.
Turning to `CC(C)C[C@@H](C(=O)N[C@@H]1CC[C@H]2CN(C(=O)c3cccc(C(F)(F)F)c3)C[C@H]21)N1CCCC1` [Example 345, (2S)-4-methyl-2-pyrrolidin-1-yl-N-{(3aS,4R,6aR)-2-[3-(trifluoromethyl)benzoyl]octahydrocyclopenta[c]pyrrol-4-yl}pentanamide], the IC50 came out at 4.32 µM.
As for `CN[C@@H](CC(C)(C)C)C(=O)N[C@@H]1CC[C@H]2CN(Cc3ccccc3)C[C@H]21` [Example 358, N^1-[(3aS,4R,6aR)-2-benzyloctahydrocyclopenta[c]pyrrol-4-yl]-N^2,4-dimethyl-L-leucinamide], the figure is 9 µM.
Regarding `CN[C@@H](CC(C)C)C(=O)N[C@@H]1CC[C@@H]2CN(Cc3ccccc3)C[C@@H]21` [Example 364, N^1-[(3aR,4R,6aS)-2-benzyloctahydrocyclopenta[c]pyrrol-4-yl]-N^2-methyl-L-leucinamide], the IC50 stood at 8.12 µM.
Consider `CCN[C@@H](CC(C)C)C(=O)N[C@H]1CC[C@@H]2CN(Cc3cccc(C(F)(F)F)c3)C[C@@H]21` [Example 366, N^2-ethyl-N^1-{(3aR,4S,6aS)-2-[3-(trifluoromethyl)benzyl]octahydrocyclopenta[c]pyrrol-4-yl}-L-leucinamide], for which the IC50 amounted to 5.28 µM.
Consider `CN[C@H](C(=O)N[C@@H]1CC[C@H]2CN(Cc3ccc(C(F)(F)F)cc3)C[C@H]21)C(C)C` [Example 367, N^2-methyl-N^1-{(3aS,4R,6aR)-2-[4-(trifluoromethyl)benzyl]octahydrocyclopenta[c]pyrrol-4-yl}-L-valinamide], for which the half-maximal inhibitory concentration (IC50) was 7 µM.
As for `O=C(N[C@@H]1CC[C@H]2CN(Cc3ccc(C(F)(F)F)cc3)C[C@H]21)[C@@H]1CCCCN1` [Example 370, (2S)—N-{(3aS,4R,6aR)-2-[4-(trifluoromethyl)benzyl]octahydrocyclopenta[c]pyrrol-4-yl}piperidine-2-carboxamide], the figure is 6.02 µM.
In the case of `CN[C@H](C(=O)N[C@@H]1CC[C@H]2CN(Cc3cccc(C(F)(F)F)c3)C[C@H]21)C(C)C` [Example 373, N^2-methyl-N^1-{(3aS,4R,6aR)-2-[3-(trifluoromethyl)benzyl]octahydrocyclopenta[c]pyrrol-4-yl}-L-valinamide], the IC50 came to 7.58 µM.
`CN[C@@H](CC(C)C)C(=O)N[C@@H]1CC[C@H]2CN(Cc3ccc(C(F)(F)F)c(F)c3)C[C@H]21` [Example 374, N^1-{(3aS,4R,6aR)-2-[3-fluoro-4-(trifluoromethyl)benzyl]octahydrocyclopenta[c]pyrrol-4-yl}-N^2-methyl-L-leucinamide]: the IC50 worked out at 5.36 µM.
As for `CN[C@@H](CC(C)C)C(=O)N[C@@H]1CC[C@H]2CN(Cc3ccc(F)c(C(F)(F)F)c3)C[C@H]21` [Example 375, N^1-{(3aS,4R,6aR)-2-[4-fluoro-3-(trifluoromethyl)benzyl]octahydrocyclopenta[c]pyrrol-4-yl}-N^2-methyl-L-leucinamide], the IC50 worked out at 8.22 µM.
For `CCN[C@@H](CC(C)C)C(=O)N[C@H]1CC[C@@H]2CN(S(=O)(=O)c3cccc(C(F)(F)F)c3)C[C@@H]21` [Example 383, N^2-ethyl-N^1-((3aR,4S,6aS)-2-{[3-(trifluoromethyl)phenyl]sulfonyl}octahydrocyclopenta[c]pyrrol-4-yl)-L-leucinamide] the value was 0.8 µM.
In the case of `CN[C@@H](CC(C)C)C(=O)N[C@H]1CC[C@@H]2CN(S(=O)(=O)c3cccc(C(F)(F)F)c3)C[C@@H]21` [Example 384, N^2-methyl-N^1-((3aR,4S,6aS)-2-{[3-(trifluoromethyl)phenyl]sulfonyl}octahydrocyclopenta[c]pyrrol-4-yl)-L-leucinamide], the IC50 was 1.14 µM.
On to `N[C@@H](Cc1ccccc1)C(=O)N[C@H]1CC[C@@H]2CN(S(=O)(=O)c3cccc(C(F)(F)F)c3)C[C@@H]21` [Example 385, N-((3aR,4S,6aS)-2-{[3-(trifluoromethyl)phenyl]sulfonyl}octahydrocyclopenta[c]pyrrol-4-yl)-L-phenylalaninamide], for which the IC50 was found to be 1.85 µM.
In the case of `CC(C)[C@H](N)CC(=O)N[C@H]1CC[C@@H]2CN(S(=O)(=O)c3cccc(C(F)(F)F)c3)C[C@@H]21` [Example 388, (3R)-3-amino-4-methyl-N-((3aR,4S,6aS)-2-{[3-(trifluoromethyl)phenyl]sulfonyl}octahydrocyclopenta[c]pyrrol-4-yl)pentanamide], the IC50 is 4.53 µM.
Regarding `O=C(N[C@H]1CC[C@@H]2CN(S(=O)(=O)c3cccc(C(F)(F)F)c3)C[C@@H]21)[C@@H]1CCCCN1` [Example 390, (2S)—N-((3aR,4S,6aS)-2-{[3-(trifluoromethyl)phenyl]sulfonyl}octahydrocyclopenta[c]pyrrol-4-yl)piperidine-2-carboxamide], the IC50 amounted to 2.46 µM.
As for `CCCC[C@H](NC)C(=O)N[C@H]1CC[C@@H]2CN(S(=O)(=O)c3cccc(C(F)(F)F)c3)C[C@@H]21` [Example 393, N^2-methyl-N^1-((3aR,4S,6aS)-2-{[3-(trifluoromethyl)phenyl]sulfonyl}octahydrocyclopenta[c]pyrrol-4-yl)-L-norleucinamide], the figure is 1.08 µM; as for `CCC[C@H](NC)C(=O)N[C@H]1CC[C@@H]2CN(S(=O)(=O)c3cccc(C(F)(F)F)c3)C[C@@H]21` [Example 394, N^2-methyl-N^1-((3aR,4S,6aS)-2-{[3-(trifluoromethyl)phenyl]sulfonyl}octahydrocyclopenta[c]pyrrol-4-yl)-L-norvalinamide], 0.98 µM; as for `CN[C@@H](CC(C)C)C(=O)N[C@H]1CC[C@@H]2CN(S(=O)(=O)c3ccc(C(F)(F)F)cc3)C[C@@H]21` [Example 395, N^2-methyl-N^1-((3aR,4S,6aS)-2-{[4-(trifluoromethyl)phenyl]sulfonyl}octahydrocyclopenta[c]pyrrol-4-yl)-L-leucinamide], 2.12 µM.
As to `O=C(N[C@@H]1CC[C@H]2CN(S(=O)(=O)c3cccc(C(F)(F)F)c3)C[C@H]21)[C@@H]1CCCN1` [Example 396, N-((3aS,4R,6aR)-2-{[3-(trifluoromethyl)phenyl]sulfonyl}octahydrocyclopenta[c]pyrrol-4-yl)-L-prolinamide], the IC50 came to 3.55 µM.
As for `O=C(N[C@@H]1CC[C@H]2CN(S(=O)(=O)c3cccc(C(F)(F)F)c3)C[C@H]21)[C@@H]1CCCCN1` [Example 398, (2S)—N-((3aS,4R,6aR)-2-{[3-(trifluoromethyl)phenyl]sulfonyl}octahydrocyclopenta[c]pyrrol-4-yl)piperidine-2-carboxamide], the figure is 3.25 µM; as for `CN[C@H](C(=O)N[C@@H]1CC[C@H]2CN(S(=O)(=O)c3ccc(F)cc3)C[C@H]21)C(C)C` [Example 400, N^1-{(3aS,4R,6aR)-2-[(4-fluorophenyl)sulfonyl]octahydrocyclopenta[c]pyrrol-4-yl}-N^2-methyl-L-valinamide], 6.86 µM; as for `CN[C@H](C(=O)N[C@@H]1CC[C@H]2CN(S(=O)(=O)c3ccc(C(F)(F)F)cc3)C[C@H]21)C(C)C` [Example 402, N^2-methyl-N^1-((3aS,4R,6aR)-2-{[4-(trifluoromethyl)phenyl]sulfonyl}octahydrocyclopenta[c]pyrrol-4-yl)-L-valinamide], 2.06 µM.
As for `CCC[C@H](NC)C(=O)N[C@@H]1CC[C@H]2CN(S(=O)(=O)c3ccc(C(F)(F)F)cc3)C[C@H]21` [Example 404, N^2-methyl-N^1-((3aS,4R,6aR)-2-{[4-(trifluoromethyl)phenyl]sulfonyl}octahydrocyclopenta[c]pyrrol-4-yl)-L-norvalinamide], the IC50 was 1.02 µM.
As to `CN[C@H](C(=O)N[C@@H]1CC[C@H]2CN(S(=O)(=O)c3cccc(C(F)(F)F)c3)C[C@H]21)C(C)C` [Example 406, N^2-methyl-N^1-((3aS,4R,6aR)-2-{[3-(trifluoromethyl)phenyl]sulfonyl}octahydrocyclopenta[c]pyrrol-4-yl)-L-valinamide], the 50% inhibitory concentration (IC50) came to 3.69 µM.
For `CN[C@@H](CC(C)C)C(=O)N[C@@H]1CC[C@H]2CN(S(=O)(=O)c3ccc(F)c(C(F)(F)F)c3)C[C@H]21` [Example 407, N^1-((3aS,4R,6aR)-2-{[4-fluoro-3-(trifluoromethyl)phenyl]sulfonyl}octahydrocyclopenta[c]pyrrol-4-yl)-N^2-methyl-L-leucinamide] the value was 5.43 µM.

As usually defined, the IC50 is the concentration that gives 50% inhibition.

(Values after patent US8129417B2, “Substituted octahydrocyclopenta[C]pyrrol-4-amines as calcium channel blockers” (Abbott Laboratories, priority 2008, dated 2012).)
